Test results reported in ChEMBL document CHEMBL1123627, “Effect of beta-alkyl substitution on D-1 dopamine agonist activity: absolute configuration of beta-methyldopamine” (1987).

Assays:
Assay type in all cases: functional
Rattus norvegicus [1] = species: Rattus norvegicus; experiment: Ability to stimulate the production of cyclic AMP by rat retinal adenylate cyclase at a concentration of 0.1 uM
Rattus norvegicus [2] = species: Rattus norvegicus; experiment: Ability to stimulate the production of cyclic AMP by rat retinal adenylate cyclase at a concentration of 1 uM
Rattus norvegicus [3] = species: Rattus norvegicus; experiment: Ability to stimulate the production of cyclic AMP by rat retinal adenylate cyclase at a concentration of 10 uM

`NCC(c1ccccc1)c1ccc(O)c(O)c1` (stereo not given) showed a Stimulation (Rattus norvegicus [1]) of 4.9%, a Stimulation (Rattus norvegicus [2]) of 16.3% and a Stimulation (Rattus norvegicus [3]) of 97.1%.
`NCCc1ccc(O)c(O)c1` [DOPAMINE] was tested, and the Stimulation (Rattus norvegicus [1]) was 31.4%, the Stimulation (Rattus norvegicus [2]) was 106.4% and the Stimulation (Rattus norvegicus [3]) was 205.4%.
`CC(CN)c1ccc(O)c(O)c1` (racemic) gave a Stimulation (Rattus norvegicus [1]) of 5.9%, a Stimulation (Rattus norvegicus [2]) of -3.5% and a Stimulation (Rattus norvegicus [3]) of 10.5%.
For `CC(CN)c1ccc(O)c(O)c1` (single isomer, unassigned), the Stimulation (Rattus norvegicus [1]) was 1.5%, the Stimulation (Rattus norvegicus [2]) was 6% and the Stimulation (Rattus norvegicus [3]) was 41%.
Work on `C[C@H](CN)c1ccc(O)c(O)c1` yielded a Stimulation (Rattus norvegicus [1]) of 1.6%, a Stimulation (Rattus norvegicus [2]) of 11.7% and a Stimulation (Rattus norvegicus [3]) of 39.1%.
